# Experimental data reported in US12636269B2, “Compositions and methods of use of gamma-ketoaldheyde scavengers for treating, preventing or improving fibrosis of the liver” (MTI Biotech, Inc., priority 2017, dated 2026).
# Tests used:
# primary human HSC = settings: non-cytotoxic levels; cited from earlier work
# cyclooxygenase enzymes = settings: cited from earlier work
# [1] = in vitro and in vivo; cited from earlier work
# Timp1 = experiment: liver mRNA expression by RT-qPCR in DIAMOND mice, Timp1; assay type: in vivo, mouse; settings: qRT-PCR
# Source text: (§1) Twelve 8-wk old male DIAMOND mice were placed on ad libitum high fat diet (Harlan—ENVIGO TD.88317) and water containing glucose (18.9% w/v) and fructose (23.1% w/v); all mice remained on this diet throughout the study protocol. At 12 weeks of age, mice were divided into two groups: 1) 2-HOBA (n=6), and 2) vehicle controls (n=6). Animals in the 2-HOBA group received 2-HOBA in drinking water (1 g/L water with glucose and fructose). The vehicle control group received water without 2-HOBA (with glucose and fructose). Body weight and food intake were measured weekly. At […] of age, all animals underwent a glucose tolerance test (GTT) and MRI imaging to assess hepatic fat. For the GTT, animals were fasted for 12 hours and then glucose (2 g/kg bw of a 100 mg/mL glucose in sterile water) was administered by oral gavage. Blood was sampled at 0, 15, 30, 45, 60, 90, and 120 minutes after glucose administration and area under the curve was calculated. […]
# (§2) Liver sections were stained with hematoxylin and eosin (for scoring of steatosis, hepatocyte ballooning, and inflammation) and Sirius red (for assessment of fibrosis). […] Serum levels of glucose, alanine transaminase, and aspartate transaminase were measured. Liver mRNA expression was assessed via RT-qPCR for the following genes: Tnfa, Nlrpla, Il1b, Il18, Timp1, Colla1, ProCard, Nlrp3, Casp1, ProIl1b, Tgfb1, Bambi, Pdk4, and Gapdh. […]
# DIAMOND mice = experiment: liver histology (fibrosis, steatosis, ballooning, inflammation) in DIAMOND mice on high-fat, high-sugar diet; assay type: in vivo, mouse; settings: for fibrosis score: Picosirius Red staining, scale of 0 to 4, 1 g/L in drinking water, 12 weeks
# Source text: DIAMOND (Diet Induced Animal Model of Non-alcoholic fatty liver Disease) is a proprietary isogenic mouse strain that sequentially develops non-alcoholic fatty liver disease, non-alcoholic steatohepatitis, fibrosis, and hepatocellular carcinoma in response to a high-fat, high-sugar diet. Disease progression in the DIAMOND mice uniquely parallels human disease progression, including histopathology.
# Twelve 8-wk old male DIAMOND mice were placed on ad libitum high fat diet (Harlan—ENVIGO TD.88317) and water containing glucose (18.9% w/v) and fructose (23.1% w/v); all mice remained on this diet throughout the study protocol. At 12 weeks of age, mice were divided into two groups: 1) 2-HOBA (n=6), and 2) vehicle controls (n=6). Animals in the 2-HOBA group received 2-HOBA in drinking water (1 g/L water with glucose and fructose). The vehicle control group received water without 2-HOBA (with glucose and fructose). Body weight and food intake were measured weekly. At […] of age, all animals underwent a glucose tolerance test (GTT) and MRI imaging to assess hepatic fat. For the GTT, animals were fasted for 12 hours and then glucose (2 g/kg bw of a 100 mg/mL glucose in sterile water) was administered by oral gavage. Blood was sampled at 0, 15, 30, 45, 60, 90, and 120 minutes after glucose administration and area under the curve was calculated. Animals were sacrificed at 24 weeks of age (12 weeks of 2-HOBA or vehicle treatment). Tissues and serum were collected for analysis.
# Liver sections were stained with hematoxylin and eosin (for scoring of steatosis, hepatocyte ballooning, and inflammation) and Sirius red (for assessment of fibrosis). Scoring was performed in a blinded manner for steatosis, ballooning, inflammation, and necrosis using the following criterial, Steatosis (0-4): 0=<5%; 1=5-25%; 2=25-50%; 3=50-75%; 4=75-100%. Ballooning (0-3): 0=absent; 1=mild (focal involving fewer than three hepatocytes); 2=moderate (focal involving more than three hepatocytes or multifocal); 3=prominent (multifocal with more than two foci of three or more hepatocytes). Inflammation (0-4): 0=absent; 1=minimal (zero to one focus per 20× field); 2=mild (two foci); 3=moderate (three foci); 4=severe (four or more foci). Serum levels of glucose, alanine transaminase, and aspartate transaminase were measured. Liver mRNA expression was assessed via RT-qPCR for the following genes: Tnfa, Nlrpla, Il1b, Il18, Timp1, Colla1, ProCard, Nlrp3, Casp1, ProIl1b, Tgfb1, Bambi, Pdk4, and Gapdh. Two-tailed independent samples t-tests were used to compare endpoints between 2-HOBA and vehicle treated groups. Significance was set at α=0.05.
# Colla1 = experiment: liver mRNA expression by RT-qPCR in DIAMOND mice, Colla1; assay type: in vivo, mouse; settings: qRT-PCR, not statistically significant (p=0.08)
# Source text: as §1, §2
# HepG2 cells = settings: cited from earlier work
# [2] = compared to vehicle treated DIAMOND mice
Molecule,"HSC activation (α-SMA expression, MAPK activation, cytokine production) (primary human HSC)",inhibition of cyclooxygenase enzymes (cyclooxygenase enzymes),protein and lipid adduction [1],liver Timp1 mRNA expression (Timp1),hepatic fibrosis (DIAMOND mice; DIAMOND mice),markers of inflammation (DIAMOND mice; DIAMOND mice),fibrosis score (DIAMOND mice; the remaining two treated mice),fibrosis score (DIAMOND mice; three of the treated mice),degree of hepatic steatosis (DIAMOND mice; [2]),degree of hepatocellular ballooning (DIAMOND mice; [2]),"incidence of fibrosis (DIAMOND mice; compared to vehicle treated DIAMOND mice, p=0.03)",Colla1 mRNA expression levels (Colla1),protection against H2O2-induced cytotoxicity (HepG2 cells)
15-E2-isolevuglandin [15-E2-IsoLG],promoted HSC activation,–,–,–,–,–,–,–,–,–,–,–,–
"NCc1ccccc1O [2-HOBA, 2-Hydroxybenzylamine]",–,does not inhibit,preventing protein and lipid adduction,reduced,attenuates,without altering,1,0,similar,similar,significantly lower,tended to be lower,dramatically protected
